Measurements: ChEMBL document CHEMBL1201861, “Genomics of Drug Sensitity in Cancer screening data, Wellcome Trust Sanger Institute”

Key:
Experiment in all cases: cells
U-251 = format: functional, cell-based, Homo sapiens; conditions: Homo sapiens, U-251;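 further: growth inhibition of human U-251 cells, read out through a cell viability assay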
Description: SANGER: Inhibition of human U251 cell growth in a cell viability assay.

MS-1 = format: functional, cell-based; conditions: Homo sapiens;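 further: growth inhibition of MS-1 cells, read out by cell viability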
Description: SANGER: Inhibition of human MS-1 cell growth in a cell viability assay.

BT-20 = format: functional, cell-based, Homo sapiens; conditions: Homo sapiens, BT-20;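 further: cell viability assay measuring suppression of growth in human BT-20 cells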
Description: SANGER: Inhibition of human BT-20 cell growth in a cell viability assay.

A253 cell line = format: functional, cell-based, Homo sapiens; conditions: Homo sapiens, A253;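 further: growth inhibition of A253 cells, read out with a cell viability assay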
Description: SANGER: Inhibition of human A253 cell growth in a cell viability assay.

SW684 = format: functional, cell-based, Homo sapiens; conditions: Homo sapiens, SW684;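 further: growth inhibition of human SW684 cells, measured by a cell viability assay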
Description: SANGER: Inhibition of human SW684 cell growth in a cell viability assay.

MZ2-MEL = format: functional, cell-based, Homo sapiens; conditions: Homo sapiens, MZ2-MEL;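 further: growth inhibition of MZ2-MEL cells read out with a cell viability assay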
Description: SANGER: Inhibition of human MZ2-MEL cell growth in a cell viability assay.

NUGC-3 = format: functional, cell-based, Homo sapiens; conditions: Homo sapiens, NUGC-3;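 further: growth inhibition of human NUGC-3 cells, read out with a cell viability assay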
Description: SANGER: Inhibition of human NUGC-3 cell growth in a cell viability assay.

HT = format: functional, cell-based; conditions: Homo sapiens
Description: SANGER: Inhibition of human HT cell growth in a cell viability assay.

Calu-6 = format: functional, cell-based, Homo sapiens; conditions: Homo sapiens, Calu-6;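 further: growth of human Calu-6 cells, read out by a cell viability assay, IC50 marking inhibition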
Description: SANGER: Inhibition of human Calu-6 cell growth in a cell viability assay.

LCLC-97TM1 = format: functional, cell-based, Homo sapiens; conditions: Homo sapiens, LCLC-97TM1;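 further: cell viability assay measuring growth inhibition of human LCLC-97TM1 cells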
Description: SANGER: Inhibition of human LCLC-97TM1 cell growth in a cell viability assay.

NCI-H1838 = format: functional, cell-based, Homo sapiens; conditions: Homo sapiens, NCI-H1838;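 further: growth inhibition of NCI-H1838 cells, determined with a cell viability readout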
Description: SANGER: Inhibition of human NCI-H1838 cell growth in a cell viability assay.

NCI-H2170 = format: functional, cell-based, Homo sapiens; conditions: Homo sapiens, NCI-H2170;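 further: cell viability assay measuring growth inhibition of human NCI-H2170 cancer cells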
Description: SANGER: Inhibition of human NCI-H2170 cell growth in a cell viability assay.

J-RT3-T3-5 = format: functional, cell-based; conditions: Homo sapiens;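 further: cell viability assay measuring growth inhibition of human J-RT3-T3-5 cells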
Description: SANGER: Inhibition of human J-RT3-T3-5 cell growth in a cell viability assay.

HT-144 = format: functional, cell-based, Homo sapiens; conditions: Homo sapiens, HT-144
Description: SANGER: Inhibition of human HT-144 cell growth in a cell viability assay.

MFE-280 = format: functional, cell-based, Homo sapiens; conditions: Homo sapiens, MFE-280;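 further: growth inhibition of MFE-280 cells, determined with a cell viability readout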
Description: SANGER: Inhibition of human MFE-280 cell growth in a cell viability assay.

RPMI-8866 = format: functional, cell-based; conditions: Homo sapiens
Description: SANGER: Inhibition of human RPMI-8866 cell growth in a cell viability assay.

VMRC-RCZ = format: functional, cell-based; conditions: Homo sapiens;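 further: growth inhibition measured with a cell viability assay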
Description: SANGER: Inhibition of human VMRC-RCZ cell growth in a cell viability assay.

JEG-3 = format: functional, cell-based, Homo sapiens; conditions: Homo sapiens, JEG-3;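 further: growth inhibition of human JEG-3 cells, read out with a cell viability assay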
Description: SANGER: Inhibition of human JEG-3 cell growth in a cell viability assay.

YAPC = format: functional, cell-based, Homo sapiens; conditions: Homo sapiens, YAPC;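 further: growth inhibition of YAPC cells, measured with a cell viability assay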
Description: SANGER: Inhibition of human YAPC cell growth in a cell viability assay.

769-P = format: functional, cell-based, Homo sapiens; conditions: Homo sapiens, 769-P
Description: SANGER: Inhibition of human 769-P cell growth in a cell viability assay.

TE-6 = format: functional, cell-based, Homo sapiens; conditions: Homo sapiens, TE-6;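 further: growth inhibition of TE-6 cells, read out with a cell viability assay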
Description: SANGER: Inhibition of human TE-6 cell growth in a cell viability assay.

MPP-89 = format: functional, cell-based, Homo sapiens; conditions: Homo sapiens, MPP-89;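 further: growth inhibition of human MPP-89 cells, read out with a cell viability assay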
Description: SANGER: Inhibition of human MPP-89 cell growth in a cell viability assay.

MHH-NB-11 = format: functional, cell-based, Homo sapiens; conditions: Homo sapiens, MHH-NB-11;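 further: growth inhibition of human MHH-NB-11 cells, read out by a cell viability assay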
Description: SANGER: Inhibition of human MHH-NB-11 cell growth in a cell viability assay.

SK-UT-1 = format: functional, cell-based, Homo sapiens; conditions: Homo sapiens, SK-UT-1;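 further: growth inhibition of SK-UT-1 cells, measured by a cell viability assay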
Description: SANGER: Inhibition of human SK-UT-1 cell growth in a cell viability assay.

SW1088 = format: functional, cell-based, Homo sapiens; conditions: Homo sapiens, SW1088;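 further: growth inhibition of human SW1088 cells, read out by a cell viability assay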
Description: SANGER: Inhibition of human SW1088 cell growth in a cell viability assay.

TGBC1TKB = format: functional, cell-based, Homo sapiens; conditions: Homo sapiens, TGBC1TKB;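 further: growth inhibition of TGBC1TKB cells, read out by a cell viability assay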
Description: SANGER: Inhibition of human TGBC1TKB cell growth in a cell viability assay.

TCC-SUP = format: functional, cell-based, Homo sapiens; conditions: Homo sapiens, TCC-SUP;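 further: growth inhibition of TCC-SUP cells, read out with a cell viability assay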
Description: SANGER: Inhibition of human TCCSUP cell growth in a cell viability assay.

MSTO-211H = format: functional, cell-based, Homo sapiens; conditions: Homo sapiens, MSTO-211H
Description: SANGER: Inhibition of human MSTO-211H cell growth in a cell viability assay.

CAL-54 = format: functional, cell-based, Homo sapiens; conditions: Homo sapiens, CAL-54;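 further: growth inhibition of CAL-54 cells, read out by a viability measurement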
Description: SANGER: Inhibition of human CAL-54 cell growth in a cell viability assay.

NKM-1 = format: functional, cell-based; conditions: Homo sapiens;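 further: growth inhibition of NKM-1 cells, read out with a cell viability assay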
Description: SANGER: Inhibition of human NKM-1 cell growth in a cell viability assay.

TE-5 = format: functional, cell-based, Homo sapiens; conditions: Homo sapiens, TE-5;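 further: inhibition of cell growth, read out by a cell viability assay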
Description: SANGER: Inhibition of human TE-5 cell growth in a cell viability assay.

NOMO-1 = format: functional, cell-based; conditions: Homo sapiens;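 further: growth inhibition of human NOMO-1 cells measured by a cell viability assay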
Description: SANGER: Inhibition of human NOMO-1 cell growth in a cell viability assay.

SCC-15 = format: functional, cell-based, Homo sapiens; conditions: Homo sapiens, SCC-15;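 further: growth inhibition of SCC-15 cells, read out with a cell viability assay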
Description: SANGER: Inhibition of human SCC-15 cell growth in a cell viability assay.

NCI-H1355 = format: functional, cell-based, Homo sapiens; conditions: Homo sapiens, NCI-H1355;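 further: growth inhibition of human NCI-H1355 cells, read out by a cell viability assay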
Description: SANGER: Inhibition of human NCI-H1355 cell growth in a cell viability assay.

HPAF-II = format: functional, cell-based, Homo sapiens; conditions: Homo sapiens, HPAF-II;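 further: growth inhibition of HPAF-II cells, read out with a cell viability assay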
Description: SANGER: Inhibition of human HPAF-II cell growth in a cell viability assay.

SAOS-2 = format: functional, cell-based, Homo sapiens; conditions: Homo sapiens, SAOS-2;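 further: growth inhibition of human Saos-2 cells determined by a cell viability assay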
Description: SANGER: Inhibition of human Saos-2 cell growth in a cell viability assay.

LXF-289 cell line = format: functional, cell-based, Homo sapiens; conditions: Homo sapiens, LXF-289
Description: SANGER: Inhibition of human LXF-289 cell growth in a cell viability assay.

ME-180 = format: functional, cell-based; conditions: Homo sapiens;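 further: cell viability assay measuring growth inhibition of ME-180 cells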
Description: SANGER: Inhibition of human ME-180 cell growth in a cell viability assay.

MOLT-16 = format: functional, cell-based; conditions: Homo sapiens;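 further: growth inhibition of human MOLT-16 cells, read out with a cell viability assay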
Description: SANGER: Inhibition of human MOLT-16 cell growth in a cell viability assay.

SF-539 = format: functional, cell-based, Homo sapiens; conditions: Homo sapiens, SF-539;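 further: Read-out is a cell viability assay, with IC50 reflecting inhibition of cell growth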
Description: SANGER: Inhibition of human SF539 cell growth in a cell viability assay.

NCI-H650 = format: functional, cell-based, Homo sapiens; conditions: Homo sapiens, NCI-H650;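 further: growth inhibition of NCI-H650 cells, read out by a viability assay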
Description: SANGER: Inhibition of human NCI-H650 cell growth in a cell viability assay.

OVCAR-5 = format: functional, cell-based, Homo sapiens; conditions: Homo sapiens, OVCAR-5;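 further: growth inhibition of human OVCAR-5 cells, read out with a cell viability assay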
Description: SANGER: Inhibition of human OVCAR-5 cell growth in a cell viability assay.

BXPC-3 = format: functional, cell-based, Homo sapiens; conditions: Homo sapiens, BXPC-3;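 further: growth inhibition of human BxPC-3 cells, read out by a cell viability assay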
Description: SANGER: Inhibition of human BxPC-3 cell growth in a cell viability assay.

BPH-1 = format: functional, cell-based, Homo sapiens; conditions: Homo sapiens, BPH-1;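 further: cell viability assay measuring growth inhibition of human BPH-1 cells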
Description: SANGER: Inhibition of human BPH-1 cell growth in a cell viability assay.

CAPAN-1 = format: functional, cell-based, Homo sapiens; conditions: Homo sapiens, CAPAN-1;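 further: growth suppression of CAPAN-1 cells, read out by a cell viability assay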
Description: SANGER: Inhibition of human CAPAN-1 cell growth in a cell viability assay.

FTC-133 = format: functional, cell-based, Homo sapiens; conditions: Homo sapiens, FTC-133
HSC-2 = format: functional, cell-based, Homo sapiens; conditions: Homo sapiens, HSC-2;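 further: growth inhibition of human HSC-2 cells, read out by a cell viability assay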
Description: SANGER: Inhibition of human HSC-2 cell growth in a cell viability assay.

NCI-H1092 = format: functional, cell-based; conditions: Homo sapiens;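 further: cell growth inhibition measured with a cell viability assay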
Description: SANGER: Inhibition of human NCI-H1092 cell growth in a cell viability assay.

SCH = format: functional, cell-based, Homo sapiens; conditions: Homo sapiens, SCH;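 further: growth inhibition of human SCH cells, read out in a cell viability assay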
Description: SANGER: Inhibition of human SCH cell growth in a cell viability assay.

KYSE-180 = format: functional, cell-based, Homo sapiens; conditions: Homo sapiens, KYSE-180;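 further: growth inhibition of KYSE-180 cells, read out with a cell viability assay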
Description: SANGER: Inhibition of human KYSE-180 cell growth in a cell viability assay.

CP50-MEL-B = format: functional, cell-based, Homo sapiens; conditions: Homo sapiens, CP50-MEL-B;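 further: growth inhibition of the human cell line, measured with a cell viability read-out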
Description: SANGER: Inhibition of human CP50-MEL-B cell growth in a cell viability assay.

Measured: IC50

C[C@]1(O)C[C@@H](c2nc(-c3ccc4ccc(-c5ccccc5)nc4c3)c3c(N)nccn32)C1 [LINSITINIB]
181 nM: NCI-H1355
262 nM: HT-144
165 nM: SAOS-2
210 nM: LCLC-97TM1
214 nM: NCI-H650
> 2560 nM: all other assays above

COc1ccc(C2=N[C@@H](c3ccc(Cl)cc3)[C@@H](c3ccc(Cl)cc3)N2C(=O)N2CCNC(=O)C2)c(OC(C)C)c1 [NUTLIN-3]
1790 nM: MOLT-16
2570 nM: MSTO-211H
4500 nM: MZ2-MEL
2650 nM: HT-144
1050 nM: NKM-1
2560 nM: RPMI-8866
4530 nM: CAL-54
4240 nM: CP50-MEL-B
3270 nM: MHH-NB-11
> 8000 nM: all other assays above
